Reference: US10772858B2, “Benzhydrol derivatives for the management of conditions related to hypoxia inducible factors” (GEORGIA STATE UNIVERSITY RESEARCH FOUNDATION, priority 2015, dated 2020)

Key:
[1] = tested on: LN229HRE-luc/lacZ cells (VEGF HRE, HIF-1 target); experiment: Inhibition of hypoxia-inducible gene expression driven by HRE-reporter construct (firefly luciferase) in glioma cells; assay type: cell-based; details: Homo sapiens, Glioma cell; firefly luciferase activity in LN229HRE-luc/LacZ cells, 1 hour pretreatment under normoxia, then hypoxia (1% O2); from dose-response curves
Method: Inhibition of Hypoxia-Inducible Gene Expression Driven by Exogenous HRE-Reporter Constructs in Glioma Cells
LN229HRE-luc/lacZ cells were generated by stably transfecting human LN229 glioma cells with a bidirectional reporter construct (pBIGL-V6R) in which the firefly luciferase and LacZ reporter genes are under the control of 6 head to tail tandem copies of the VEGF HRE (hypoxia-responsive element—endogenous HIF-1 target gene) in rightward orientation (clone LN229V6R#18; Hygro selection […]) as reported in Yin et al. Clinical Cancer Research, 2012, 1-11.
Cells were pretreated with different doses of test compounds or 1% DMSO (final concentration in media) vehicle control for 1 hour under normoxia (21% O2); then incubation continued under normoxia or hypoxia (1% O2) using a hypoxia incubator (Thermo Forma model 3130). Firefly luciferase activities in lysates of LN229HRE-luc/LacZ cells were measured with a Dual-Luciferase Reporter Assay System (Promega) in a 20/20 n Luminometer (Promega). The IC50 (μM) value for each individual compound was established from the dose-response curves.

H460 xenograft = H460 xenograft model; cited from earlier work
mitochondrial complex I = details: cited from earlier work
HIF-1α = details: cited from earlier work
cell culture media = experiment: Acidification of cell culture media (lactate production); assay type: cell-based; details: due to increased lactate production
From the text: It has been discovered that certain HIF inhibitors disclosed herein are also mitochondrial inhibitors. […] KCN1 induced acidification of media may be due to the consequence of its mitochondrial inhibiting activity. Inhibiting the mitochondrial complex I interferes with the normal functions of the electron transport chain. This in effect can damage DNA and specific components of the mitochondria which leads to cell death through the generation of reactive oxygen species.

LN229 cells = experiment: Toxicity to LN229 cells in the presence of galactose; assay type: cell-based, human
From the text: To be metabolized, galactose has to be converted into glucose in an energy consuming process that cannot be balanced by glycolytic metabolism. […] KCN1 is toxic to LN229 cells in the presence of galactose. […] Thus, in certain embodiments, the disclosure contemplates administering compounds disclosed herein in combination with a restricted or low glucose diet optionally in combination with galactose.

[2] = biological target: mitochondrial Complex I (NADH:ubiquinone oxidoreductase); experiment: MitoCheck Complex I activity assay (Cayman Chemicals #700930); assay type: biochemical
From the text: Complex I (NADH:ubiquinone oxidoreductase or NADH dehydrogenase (ubiquinone)) is a complex of enzymes of the respiratory chains that catalyzes the transfer of electrons from NADH to coenzyme Q10 (CoQ10) located in the inner mitochondrial membrane. […] Cancer Medicine, 2013, 2(5): 611-624. […] Interference with mitochondrial function to reduce hypoxia-induced HIF-1 activity in tumors is indicated as a therapeutic approach to overcome chemo- and radiotherapy resistance of hypoxic tumors. Helbig et al. report BAY 87-2243 improves local tumor control after fractionated irradiation in a schedule-dependent manner in head and neck human xenografts. Radiation Oncology 2014, 9:207. Santidrian et al. report mitochondrial complex I activity and NAD+/NADH balance regulate breast cancer progression. J Clin Invest, 2013, 123(3):1068-81. See also Ellinghaus et al., Cancer Med, 2013, 2(5):611-624. Chang et al., Clin Cancer Res, 2015, 21(2):335-46; Fulda et al., Antioxid Redox Signal, 2011, 15:2937-2949; Wenner, J Cell Physiol, 2012, 227:450-456; Fulda et al., Nat Rev Drug Discov, 2010, 9:447-464.
It has been discovered that certain HIF inhibitors disclosed herein are also mitochondrial inhibitors. […] KCN1 induced acidification of media may be due to the consequence of its mitochondrial inhibiting activity. […]

| SMILES | IC50 [1] [nM] | further results |
| --- | --- | --- |
| CCCCCOc1ccc(C(O)c2ccc(OC)c(OC)c2)c(F)c1 (stereo not drawn) [35b] | 1300 |  |
| CCCCCOc1ccc(C(O)c2ccc(OC)c(OC)c2)c(C)c1 (stereo not drawn) [35c] | 430 |  |
| COc1ccc(C(O)c2ccc(OCC3CCN(C(=O)OC(C)(C)C)CC3)cc2C)cc1OC (stereo not drawn) [35d] | 330 |  |
| COc1ccc(C(O)c2ccc(OCCC3CCN(C(=O)OC(C)(C)C)CC3)cc2C)cc1OC (stereo not drawn) [35e, Tert-butyl 4-(2-(4-((3,4-dimethoxyphenyl)(hydroxy)methyl)-3-methylphenoxy)ethyl)piperidine-1-carboxylate] | 270 |  |
| COc1cc(C(O)c2ccc(OCC3CCN(C(=O)OC(C)(C)C)CC3)cc2C)cc(OC)c1OC (stereo not drawn) [35f] | 270 |  |
| COc1cc(C(O)c2ccc(OCCC3CCN(C(=O)OC(C)(C)C)CC3)cc2C)cc(OC)c1OC (stereo not drawn) [35g, Tert-butyl 4-(2-(4-(hydroxy(3,4,5-trimethoxyphenyl)methyl)-3-methylphenoxy)ethyl)piperidine-1-carboxylate] | 270 |  |
| Cc1cc(-c2nc(-c3ccc(OC(F)(F)F)cc3)no2)nn1Cc1ccnc(N2CCN(C3CC3)CC2)c1 [BAY 87-2243] |  | antitumor activity in vivo (H460 xenograft): Antitumor activity of BAY 87-2243 in vivo was demonstrated; mitochondrial complex I activity inhibition (mitochondrial complex I): inhibits mitochondrial complex I activity; HIF-1α inhibition (HIF-1α): inhibits HIF-1α |
| COc1ccc(S(=O)(=O)N(Cc2ccc3c(c2)C=CC(C)(C)O3)c2ccccc2)cc1OC [KCN1] |  | acidification of cell culture media (cell culture media): strongly acidifies cell culture media; toxicity to LN229 cells (LN229 cells): toxic; IC50 [2]: ~15000 nM |

More lines, main results first:

| IC50 [1] [nM] | SMILES | further results |
| --- | --- | --- |
| > 5000 | COc1ccc(C(=O)c2ccc(C[C@H]3CCOC3)cc2)cc1OC [36c] |  |
| > 5000 | COc1ccc(C(=O)c2ccc(N3CCOCC3)cc2)cc1OC [36d] |  |
| > 5000 | COc1ccc(C(=O)c2ccc3c(c2)C=CC(C)(C)O3)cc1OC [36e] |  |
| > 5000 | COc1ccc(C(=O)c2cccc(COC3CCN(C(=O)OC(C)(C)C)CC3)c2)cc1OC [36f] |  |
| 4500 | COc1ccc(C(=O)c2ccc(COC3CCN(C(=O)OC(C)(C)C)CC3)cc2)cc1OC [36g] |  |
| > 5000 | COc1ccc(C(=O)c2ccc3c(n2)C=CC(C)(C)O3)cc1OC [36h] |  |
